# Earlier results in patent US20070072904A1, “PPAR active compounds” (priority 2005, published 2007).
# Columns and labels:
# PPARδ = target: T1, PPARδ (Homo sapiens, UniProt Q03181)
# T1 sequence (Q03181 1-441): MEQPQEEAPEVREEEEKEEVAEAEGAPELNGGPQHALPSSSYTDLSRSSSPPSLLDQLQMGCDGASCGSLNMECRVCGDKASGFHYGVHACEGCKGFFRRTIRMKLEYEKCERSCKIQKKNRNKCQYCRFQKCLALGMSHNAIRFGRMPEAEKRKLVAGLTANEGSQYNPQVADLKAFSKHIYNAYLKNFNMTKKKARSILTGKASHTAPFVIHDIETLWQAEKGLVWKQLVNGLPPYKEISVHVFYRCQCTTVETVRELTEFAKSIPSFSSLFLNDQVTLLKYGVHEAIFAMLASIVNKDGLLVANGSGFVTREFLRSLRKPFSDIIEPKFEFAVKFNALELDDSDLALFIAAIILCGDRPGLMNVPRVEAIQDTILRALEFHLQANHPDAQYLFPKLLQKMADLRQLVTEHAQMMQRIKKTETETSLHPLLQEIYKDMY
# murine PPARα = target: T2, murine PPARα (Mus musculus, UniProt P23204)
# T2 sequence (P23204 1-468): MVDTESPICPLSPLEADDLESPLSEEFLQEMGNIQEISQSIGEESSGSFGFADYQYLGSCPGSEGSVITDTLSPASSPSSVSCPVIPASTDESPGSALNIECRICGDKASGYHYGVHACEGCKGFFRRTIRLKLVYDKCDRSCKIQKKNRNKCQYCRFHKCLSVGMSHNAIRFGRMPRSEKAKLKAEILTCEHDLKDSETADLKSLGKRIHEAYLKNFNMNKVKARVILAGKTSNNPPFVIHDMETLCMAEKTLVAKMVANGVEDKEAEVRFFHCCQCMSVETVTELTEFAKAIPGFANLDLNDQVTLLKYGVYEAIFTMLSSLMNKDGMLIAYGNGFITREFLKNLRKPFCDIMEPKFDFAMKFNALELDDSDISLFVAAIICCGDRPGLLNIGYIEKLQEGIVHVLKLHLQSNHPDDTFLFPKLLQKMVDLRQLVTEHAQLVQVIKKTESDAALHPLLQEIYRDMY
# [1] = recent large prospective trial
Compound,agonist selectivity for PPARδ over PPARγ (PPARδ),activity on murine PPARα (murine PPARα),reduction in cardiovascular events or death [1]
CCCc1c(OCCCOc2ccc(OCC(=O)O)cc2)ccc(C(C)=O)c1O [Compound L-165041],approximately 30 fold,inactive,–
Cc1ccc(C)c(OCCCC(C)(C)C(=O)O)c1 [gemfibrozil],–,–,22%
